Data as given in PubChem BioAssay AID504501 (Sanford-Burnham Center for Chemical Genomics, 2011).

Molecular target: Sentrin-specific protease 8 (Homo sapiens) (UniProt Q96LD8)
Assay: inhibition of human SENP8 cleavage activity – biochemical, luminescence, SAR follow-up (AID 504501)
Conditions: recombinant SENP8 enzyme, luminescent protease assay

Chain of Sentrin-specific protease 8 (Homo sapiens) (Q96LD8 whole entry, looked up): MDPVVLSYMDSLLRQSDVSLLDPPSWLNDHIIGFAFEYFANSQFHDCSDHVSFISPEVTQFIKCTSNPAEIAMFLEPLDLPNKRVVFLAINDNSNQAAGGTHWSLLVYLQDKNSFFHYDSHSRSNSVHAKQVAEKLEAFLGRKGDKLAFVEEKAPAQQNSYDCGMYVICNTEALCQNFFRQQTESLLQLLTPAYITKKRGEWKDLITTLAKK

| SMILES | IC50 |
| --- | --- |
| Fc1ccc(COc2ccc(C(=S)N3CCCC3)cc2)cc1 | 2.5 µM |
| Cc1cccc(C(=O)Nc2scc(-c3ccc(Br)cc3)c2C(=O)O)c1 | 3.75 µM |
